For assay [1], the target named is T1, Phospho-EGFR (Tyr1068) in A431 cells (Homo sapiens, UniProt P00533).
T1 construct: endogenous in cells; host or cells: A431
Description: HTRF pEGFR/total EGFR assay in A431 cells (EGF stimulated). To be noted: compound 2.5 hours then 100 ng/ml EGF 30 mins, ratio pEGFR/total EGFR. It counts as cell-based. In outline:
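HTRF readout (665 and 620 nm) of Tyr1068-phosphorylated versus total EGFR in lysed A431 cells, expressed as ratio relative to 0uM control (%). Compound exposure 2.5 h in duplicate at 0.1% DMSO, with 100 ng/ml EGF added for 30 min.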
A general note: TR-FRET usually uses a lanthanide donor and a delayed reading to cut background.

In assay [2] the target is CtermHisTag-mEGFR Wild type (Homo sapiens, UniProt P00533). The assay can be described thus: TR-FRET probe displacement assay, EGFR wild type. It counts as binding. The conditions noted are these: EGFR wild type 1.25 nM, probe 100 nM, 30 mins room temperature. In outline: (§1)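 Probe displacement from His-tagged wild-type or triple-mutant EGFR measured by TR-FRET (excitation 337 nm, emission 490/520 nm). Compounds spanned final concentrations from 3 to 100000 nM over ten points; technical replicates, repeated twice biologically.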

Assay [3] deals with CtermHisTag-mEGFR Triple Mutant - C797S, L858R, T790M (Homo sapiens, UniProt P00533, C797S/L858R/T790M). The assay can be described thus: TR-FRET probe displacement assay, EGFR triple mutant. The conditions noted are these: T790M 1.25 nM, probe 100 nM, 30 mins room temperature. It counts as binding. In outline:
as §1

In assay [4] the target is T2, Phospho-EGFR (Tyr1068) in H1975 cells (Homo sapiens, UniProt P00533, L858R/T790M).
T2 construct: host or cells: H1975
The assay can be described thus: HTRF pEGFR/total EGFR assay in H1975 cells. It counts as cell-based. To be noted: compound 3 hours, ratio pEGFR/total EGFR. In outline:
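H1975 cells (EGFR L858R/T790M) adhered 24 h, then compound-treated for 3 h in duplicate, 0.1% DMSO final. Lysates read by HTRF at 665/620 nm for phospho-Tyr1068 and total EGFR. Value is pEGFR/total EGFR ratio as % of 0 uM control.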

For assay [5], the target named is T3, Phospho-EGFR (Tyr1068) in H1975 C797S cells (Homo sapiens, UniProt P00533, C797S/L858R/T790M).
T3 construct: endogenous in cells; host or cells: H1975 C797S (CRISPR-edited in house from ATCC CRL-5908)
Description: HTRF pEGFR/total EGFR assay in H1975 C797S cells. The conditions noted are these: H1975 C797S cells (CRISPR), compound 3 hours, ratio pEGFR/total EGFR. The assay is classed as cell-based. In outline:
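Phospho-EGFR (Tyr1068) and total EGFR were measured by HTRF (665 and 620 nm) in lysates of NGS-validated H1975 EGFR C797S cells. Cells were dosed for 3 h in duplicate, 0.1% DMSO final. Read-out is the pEGFR/total EGFR ratio relative to the 0 uM control, as percent.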

CtermHisTag-mEGFR Wild type, sequence (P00533 25-1210): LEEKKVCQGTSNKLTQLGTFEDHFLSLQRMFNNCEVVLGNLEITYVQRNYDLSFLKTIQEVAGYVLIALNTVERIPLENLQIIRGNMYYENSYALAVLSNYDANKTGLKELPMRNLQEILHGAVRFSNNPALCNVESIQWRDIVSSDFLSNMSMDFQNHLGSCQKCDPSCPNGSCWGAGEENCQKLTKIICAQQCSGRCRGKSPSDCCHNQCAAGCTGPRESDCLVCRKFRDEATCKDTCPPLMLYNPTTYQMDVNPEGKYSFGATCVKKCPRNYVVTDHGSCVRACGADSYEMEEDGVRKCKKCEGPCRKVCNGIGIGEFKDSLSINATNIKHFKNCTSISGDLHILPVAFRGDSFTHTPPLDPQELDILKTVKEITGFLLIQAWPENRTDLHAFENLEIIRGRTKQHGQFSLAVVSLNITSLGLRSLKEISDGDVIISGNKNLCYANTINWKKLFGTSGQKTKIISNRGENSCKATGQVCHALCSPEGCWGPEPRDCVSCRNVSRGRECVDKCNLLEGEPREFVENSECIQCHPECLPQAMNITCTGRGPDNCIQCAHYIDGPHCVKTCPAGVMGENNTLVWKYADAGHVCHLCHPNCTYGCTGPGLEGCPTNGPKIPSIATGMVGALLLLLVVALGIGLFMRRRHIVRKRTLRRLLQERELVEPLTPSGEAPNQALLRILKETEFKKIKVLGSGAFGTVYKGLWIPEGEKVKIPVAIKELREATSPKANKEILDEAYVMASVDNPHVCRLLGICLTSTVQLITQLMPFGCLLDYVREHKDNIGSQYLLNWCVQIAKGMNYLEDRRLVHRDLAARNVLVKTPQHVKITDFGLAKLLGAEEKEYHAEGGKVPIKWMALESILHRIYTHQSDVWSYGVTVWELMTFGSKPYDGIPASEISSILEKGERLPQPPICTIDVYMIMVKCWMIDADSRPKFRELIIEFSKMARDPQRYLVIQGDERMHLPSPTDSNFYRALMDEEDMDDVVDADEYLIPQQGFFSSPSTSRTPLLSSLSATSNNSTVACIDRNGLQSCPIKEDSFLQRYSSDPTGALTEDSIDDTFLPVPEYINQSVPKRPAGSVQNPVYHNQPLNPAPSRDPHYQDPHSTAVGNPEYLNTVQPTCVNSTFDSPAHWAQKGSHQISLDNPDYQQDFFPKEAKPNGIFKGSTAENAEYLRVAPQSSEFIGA
T1 sequence (P00533 25-1210): as above
T2 sequence (P00533 25-1210 T790M/L858R): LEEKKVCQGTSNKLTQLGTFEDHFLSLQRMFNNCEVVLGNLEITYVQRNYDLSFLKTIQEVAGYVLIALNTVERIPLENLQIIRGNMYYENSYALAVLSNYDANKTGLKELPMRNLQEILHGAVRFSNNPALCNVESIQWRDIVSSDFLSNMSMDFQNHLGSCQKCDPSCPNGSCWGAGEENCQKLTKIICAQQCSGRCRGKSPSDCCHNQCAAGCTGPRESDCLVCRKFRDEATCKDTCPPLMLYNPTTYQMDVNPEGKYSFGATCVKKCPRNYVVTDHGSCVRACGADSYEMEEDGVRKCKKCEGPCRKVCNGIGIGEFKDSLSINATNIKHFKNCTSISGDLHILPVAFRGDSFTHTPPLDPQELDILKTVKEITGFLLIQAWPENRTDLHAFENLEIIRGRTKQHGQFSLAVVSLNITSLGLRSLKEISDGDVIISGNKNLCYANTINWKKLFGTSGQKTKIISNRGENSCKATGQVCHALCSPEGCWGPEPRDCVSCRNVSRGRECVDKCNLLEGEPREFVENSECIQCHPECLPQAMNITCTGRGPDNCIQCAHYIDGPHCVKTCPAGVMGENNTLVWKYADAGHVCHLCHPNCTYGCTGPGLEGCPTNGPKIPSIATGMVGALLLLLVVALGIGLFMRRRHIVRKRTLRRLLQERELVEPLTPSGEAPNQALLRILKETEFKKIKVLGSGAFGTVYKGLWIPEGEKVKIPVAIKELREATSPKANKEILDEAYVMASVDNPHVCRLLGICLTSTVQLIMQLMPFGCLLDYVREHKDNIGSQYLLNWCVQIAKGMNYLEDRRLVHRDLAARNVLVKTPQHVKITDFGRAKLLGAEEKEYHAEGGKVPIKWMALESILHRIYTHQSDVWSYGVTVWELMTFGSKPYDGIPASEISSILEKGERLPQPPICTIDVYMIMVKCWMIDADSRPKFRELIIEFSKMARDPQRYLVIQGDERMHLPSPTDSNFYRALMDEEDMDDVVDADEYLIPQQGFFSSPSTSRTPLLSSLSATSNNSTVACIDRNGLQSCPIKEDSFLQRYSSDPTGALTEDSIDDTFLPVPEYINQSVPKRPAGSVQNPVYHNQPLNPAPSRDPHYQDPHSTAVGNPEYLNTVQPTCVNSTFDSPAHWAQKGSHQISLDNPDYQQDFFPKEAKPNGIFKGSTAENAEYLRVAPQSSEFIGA
CtermHisTag-mEGFR Triple Mutant - C797S, L858R, T790M, sequence (P00533 25-1210 T790M/C797S/L858R): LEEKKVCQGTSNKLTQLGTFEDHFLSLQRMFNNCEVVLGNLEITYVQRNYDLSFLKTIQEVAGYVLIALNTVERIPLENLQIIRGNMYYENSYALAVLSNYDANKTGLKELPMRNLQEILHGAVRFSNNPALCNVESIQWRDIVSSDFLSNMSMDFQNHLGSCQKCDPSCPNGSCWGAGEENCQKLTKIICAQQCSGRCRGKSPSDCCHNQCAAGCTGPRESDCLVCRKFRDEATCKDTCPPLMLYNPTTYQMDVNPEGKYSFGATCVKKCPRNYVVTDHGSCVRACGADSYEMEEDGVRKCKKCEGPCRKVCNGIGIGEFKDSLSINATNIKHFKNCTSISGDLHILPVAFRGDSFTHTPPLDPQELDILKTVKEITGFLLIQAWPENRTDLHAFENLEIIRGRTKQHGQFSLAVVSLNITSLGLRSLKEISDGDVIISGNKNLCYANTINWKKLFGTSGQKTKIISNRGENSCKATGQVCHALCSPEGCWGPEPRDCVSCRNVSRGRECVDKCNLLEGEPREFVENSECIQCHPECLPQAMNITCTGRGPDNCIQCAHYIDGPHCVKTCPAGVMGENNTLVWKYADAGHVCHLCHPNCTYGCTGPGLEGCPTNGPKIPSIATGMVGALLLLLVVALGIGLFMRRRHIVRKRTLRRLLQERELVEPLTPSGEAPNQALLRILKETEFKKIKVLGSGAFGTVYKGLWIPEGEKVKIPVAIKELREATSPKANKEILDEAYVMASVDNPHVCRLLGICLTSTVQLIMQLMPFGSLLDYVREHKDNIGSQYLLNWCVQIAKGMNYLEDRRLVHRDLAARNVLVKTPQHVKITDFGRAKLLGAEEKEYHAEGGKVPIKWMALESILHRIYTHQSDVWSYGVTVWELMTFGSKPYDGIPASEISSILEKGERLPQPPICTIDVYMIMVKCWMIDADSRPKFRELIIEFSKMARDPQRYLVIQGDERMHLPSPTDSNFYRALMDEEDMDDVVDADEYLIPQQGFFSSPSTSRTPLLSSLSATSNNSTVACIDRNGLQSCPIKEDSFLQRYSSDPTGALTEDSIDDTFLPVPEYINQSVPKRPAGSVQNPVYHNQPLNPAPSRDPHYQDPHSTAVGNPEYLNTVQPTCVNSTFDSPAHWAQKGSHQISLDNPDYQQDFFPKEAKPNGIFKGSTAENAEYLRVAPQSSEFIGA

In the case of `C#Cc1cc(-n2ccnc2)nc2nc(Nc3ccc(N4CCN(C)CC4)cc3)ncc12` [Example 35, 5-ethynyl-7-(imidazol-1-yl)-N-[4-(4-methylpiperazin-1-yl)phenyl]pyrido[2,3-d]pyrimidin-2-amine], the IC50 (commonly the concentration needed to halve the response being measured) was > 3 µM in assay [1]; < 1 µM in assay [2]; < 20 nM in assay [3]; 1 to 3 µM in assay [4]; > 3 µM in assay [5].
Regarding `C#Cc1cc(NC(C)=O)nc2nc(Nc3ccc(N(C)CCN(C)C)cc3)ncc12` [Example 28], the IC50 in assay [1] is > 3 µM; in assay [2], > 10 µM; in assay [3] it was < 20 nM; in assay [4], > 3 µM; in assay [5], > 3 µM.
Take `C#Cc1cc(NC(=O)NC2CCCC2)nc2nc(Nc3ccc(N(C)C(=O)CN(C)C)cc3)ncc12` [Example 83]: the IC50 is > 3 µM in assay [1]; < 1 µM in assay [2]; < 20 nM in assay [3]; < 0.5 µM in assay [4]; < 0.5 µM in assay [5].
For `C#Cc1cc(NC(=O)NC2CCCC2)nc2nc(Nc3ccc(S(=O)(=O)N(C)CCN(C)C)cc3)ncc12` [Example 84], the IC50 in assay [1] was > 3 µM; in assay [2] it was < 1 µM; in assay [3] it was < 20 nM; in assay [4], < 0.5 µM; in assay [5], < 0.5 µM.
Regarding `C#Cc1cc(N(C)C(=O)NC2CCCC2)nc2nc(Nc3ccc(N4CCN(C)CC4)cc3)ncc12` [Example 73, 3-Cyclopentyl-1-(5-ethynyl-2-{[4-(4-methylpiperazin-1-yl)phenyl]amino}pyrido[2,3-d]pyrimidin-7-yl)-1-methylurea], the IC50 in assay [1] is > 3 µM; in assay [2], < 1 µM; in assay [3], < 20 nM; in assay [4] it was < 0.5 µM; in assay [5], < 0.5 µM.
As to `C#Cc1cc(NC(=O)NC2CCCC2)nc2nc(Nc3cccc4c3CCN(C)C4)ncc12` [Example 88, 3-Cyclopentyl-1-{5-ethynyl-2-[(2-methyl-3,4-dihydro-1H-isoquinolin-5-yl)amino]pyrido[2,3-d]pyrimidin-7-yl}urea], the IC50 in assay [1] is > 3 µM; in assay [2] it was > 10 µM; in assay [3], 100 to 1000 nM; in assay [4], > 3 µM; in assay [5], > 3 µM.
`C#Cc1cc(NC(=O)NC2CN(C(C)=O)C2)nc2nc(Nc3ccc(N4CCN(C)CC4)cc3)ncc12` [Example 54]: the IC50 was > 3 µM in assay [1]; 1 to 10 µM in assay [2]; < 20 nM in assay [3]; > 3 µM in assay [4]; > 3 µM in assay [5].
Take `C#Cc1cc(OC2CC2)nc2nc(Nc3ccc(N4CCN(C)CC4)cc3)ncc12` [Example 16, 7-cyclopropoxy-5-ethynyl-N-[4-(4-methylpiperazin-1-yl)phenyl]pyrido[2,3-d]pyrimidin-2-amine]: the IC50 is > 3 µM in assay [1]; > 10 µM in assay [2]; 100 to 1000 nM in assay [3]; 1 to 3 µM in assay [4]; > 3 µM in assay [5].
`C#Cc1cc(OC)nc2nc(Nc3ccc(N4CCN(C)CC4)c(NC4CCC4)c3)ncc12` [Example 8, N^3-cyclobutyl-N^1-{5-ethynyl-7-methoxypyrido[2,3-d]pyrimidin-2-yl}-4-(4-methylpiperazin-1-yl)benzene-1,3-diamine]: the IC50 was > 3 µM in assay [1]; 1 to 10 µM in assay [2]; 20 to 100 nM in assay [3]; 1 to 3 µM in assay [4]; > 3 µM in assay [5].
On to `C#Cc1cc(NC(=O)N2CCCC2)nc2nc(Nc3ccc(N4CCN(C)CC4)cc3)ncc12` [Example 56, N-(5-ethynyl-2-{[4-(4-methylpiperazin-1-yl)phenyl]amino}pyrido[2,3-d]pyrimidin-7-yl)pyrrolidine-1-carboxamide], for which the IC50 in assay [1] is > 3 µM; in assay [2], > 10 µM; in assay [3] it was 100 to 1000 nM; in assay [4], 1 to 3 µM; in assay [5], > 3 µM.
For the compound `C#Cc1cc(N(C)C(=O)N(C)C2CCCC2)nc2nc(Nc3ccc(N4CCN(C)CC4)cc3)ncc12` [Example 123, 3-Cyclopentyl-1-(5-ethynyl-2-{[4-(4-methylpiperazin-1-yl)phenyl]amino}pyrido[2,3-d]pyrimidin-7-yl)-1,3-dimethylurea], the IC50 is > 3 µM in assay [1]; > 10 µM in assay [2]; 1000 to 50000 nM in assay [3]; > 3 µM in assay [4]; > 3 µM in assay [5].
As to `C#Cc1c(C)c(NC(=O)NC2CCCC2)nc2nc(Nc3ccc(N4CCN(C)CC4)cc3)ncc12` [Example 72, 3-Cyclopentyl-1-(5-ethynyl-6-methyl-2-{[4-(4-methylpiperazin-1-yl)phenyl]amino}pyrido[2,3-d]pyrimidin-7-yl)urea], the IC50 in assay [1] was > 3 µM; in assay [2] it was < 1 µM; in assay [3], < 20 nM; in assay [4], 0.5 to 1 µM; in assay [5], 1 to 3 µM.
For `C#Cc1cc(N2C(=O)N(C)CC23CCCC3)nc2nc(Nc3ccc(S(C)(=O)=O)cc3)ncc12` [Example 108, 1-{5-Ethynyl-2-[(4-methanesulfonylphenyl)amino]pyrido [2,3-d]pyrimidin-7-yl}-3-methyl-1,3-diazaspiro [4.4]nonan-2-one], in that order: 1 to 3 µM, > 10 µM, 20 to 100 nM, > 3 µM and > 3 µM.
For `C#Cc1cc(Nc2ccccc2)nc2nc(Nc3ccc(N(C)CCN(C)C)cc3)ncc12` [Example 25, N^2-(4-{[2-(dimethylamino)ethyl](methyl)amino}phenyl)-5-ethynyl-N^7-phenylpyrido[2,3-d]pyrimidine-2,7-diamine], the IC50 in assay [1] was > 3 µM; in assay [2], > 10 µM; in assay [3], 1000 to 50000 nM; in assay [4] it was > 3 µM; in assay [5], > 3 µM.
For the compound `C#Cc1cc(N2C(=O)NCC23CCCC3)nc2nc(Nc3ccc(N4CCN(C5COC5)CC4)cc3)ncc12` [Example 92, 1-[5-Ethynyl-2-({4-[4-(oxetan-3-yl)piperazin-1-yl]phenyl}amino)pyrido[2,3-d]pyrimidin-7-yl]-1,3-diazaspiro[4.4]nonan-2-one], the IC50 in assay [1] is 1 to 3 µM; in assay [2], < 1 µM; in assay [3], < 20 nM; in assay [4], 0.5 to 1 µM; in assay [5] it was 1 to 3 µM.
On to `C#Cc1cc(NC(=O)Cc2ccccc2)nc2nc(Nc3ccc(N4CCN(C)CC4)cc3)ncc12` [Example 30, N-(5-ethynyl-2-{[4-(4-methylpiperazin-1-yl)phenyl]amino}pyrido[2,3-d]pyrimidin-7-yl)-2-phenylacetamide], for which the half-inhibitory concentration (IC50) in assay [1] is > 3 µM; in assay [2], 1 to 10 µM; in assay [3] it was < 20 nM; in assay [4] it was 1 to 3 µM; in assay [5], 1 to 3 µM.
As for `C#Cc1cc(N2C(=O)NCC23CCCC3)nc2nc(Nc3ccc(N(C)C(=O)CN(C)C)cc3)ncc12` [Example 94, 2-(Dimethylamino)-N-{4-[(5-ethynyl-7-{2-oxo-1,3-diazaspiro[4.4]nonan-1-yl}pyrido[2,3-d]pyrimidin-2-yl)amino]phenyl}-N-methylacetamide], the IC50 in assay [1] is 1 to 3 µM; in assay [2], < 1 µM; in assay [3], 20 to 100 nM; in assay [4], 1 to 3 µM; in assay [5], 1 to 3 µM.
With `C#Cc1cc(NC(=O)NC2CCCC2)nc2nc(Nc3cccc(CN4CCC(CS(C)(=O)=O)C4)c3)ncc12` (centres unmarked) [Example 86], the IC50 was 1 to 3 µM in assay [1]; < 1 µM in assay [2]; 20 to 100 nM in assay [3]; > 3 µM in assay [4]; 0.5 to 1 µM in assay [5].
As to `C#Cc1cc(OC)nc2nc(Nc3ccc(N4CCN(C)CC4)c(NCc4ccn(C)n4)c3)ncc12` [Example 11, N^1-{5-ethynyl-7-methoxypyrido[2,3-d]pyrimidin-2-yl}-4-(4-methylpiperazin-1-yl)-N^3-[(1-methylpyrazol-3-yl)methyl]benzene-1,3-diamine], the IC50 in assay [1] is > 3 µM; in assay [2], > 10 µM; in assay [3], 100 to 1000 nM; in assay [4] it was > 3 µM; in assay [5], > 3 µM.
